Series [1] concerns the target T1, Voltage-gated L-type calcium channel (Rattus norvegicus, UniProt P22002+Q02485+P27732). The series is described as follows: Inhibition of L-type [Ca2+] channel (VSCC) in rat A7r5 vascular smooth muscle cells.
In series [2] the target is T2, Voltage-dependent N-type calcium channel subunit alpha-1B (Homo sapiens, UniProt Q00975). Nature of the series: Inhibition of N-type calcium channel (VSCC) in IMR-32 at 10 uM.
Target sequence in this assay (Q00975 whole entry): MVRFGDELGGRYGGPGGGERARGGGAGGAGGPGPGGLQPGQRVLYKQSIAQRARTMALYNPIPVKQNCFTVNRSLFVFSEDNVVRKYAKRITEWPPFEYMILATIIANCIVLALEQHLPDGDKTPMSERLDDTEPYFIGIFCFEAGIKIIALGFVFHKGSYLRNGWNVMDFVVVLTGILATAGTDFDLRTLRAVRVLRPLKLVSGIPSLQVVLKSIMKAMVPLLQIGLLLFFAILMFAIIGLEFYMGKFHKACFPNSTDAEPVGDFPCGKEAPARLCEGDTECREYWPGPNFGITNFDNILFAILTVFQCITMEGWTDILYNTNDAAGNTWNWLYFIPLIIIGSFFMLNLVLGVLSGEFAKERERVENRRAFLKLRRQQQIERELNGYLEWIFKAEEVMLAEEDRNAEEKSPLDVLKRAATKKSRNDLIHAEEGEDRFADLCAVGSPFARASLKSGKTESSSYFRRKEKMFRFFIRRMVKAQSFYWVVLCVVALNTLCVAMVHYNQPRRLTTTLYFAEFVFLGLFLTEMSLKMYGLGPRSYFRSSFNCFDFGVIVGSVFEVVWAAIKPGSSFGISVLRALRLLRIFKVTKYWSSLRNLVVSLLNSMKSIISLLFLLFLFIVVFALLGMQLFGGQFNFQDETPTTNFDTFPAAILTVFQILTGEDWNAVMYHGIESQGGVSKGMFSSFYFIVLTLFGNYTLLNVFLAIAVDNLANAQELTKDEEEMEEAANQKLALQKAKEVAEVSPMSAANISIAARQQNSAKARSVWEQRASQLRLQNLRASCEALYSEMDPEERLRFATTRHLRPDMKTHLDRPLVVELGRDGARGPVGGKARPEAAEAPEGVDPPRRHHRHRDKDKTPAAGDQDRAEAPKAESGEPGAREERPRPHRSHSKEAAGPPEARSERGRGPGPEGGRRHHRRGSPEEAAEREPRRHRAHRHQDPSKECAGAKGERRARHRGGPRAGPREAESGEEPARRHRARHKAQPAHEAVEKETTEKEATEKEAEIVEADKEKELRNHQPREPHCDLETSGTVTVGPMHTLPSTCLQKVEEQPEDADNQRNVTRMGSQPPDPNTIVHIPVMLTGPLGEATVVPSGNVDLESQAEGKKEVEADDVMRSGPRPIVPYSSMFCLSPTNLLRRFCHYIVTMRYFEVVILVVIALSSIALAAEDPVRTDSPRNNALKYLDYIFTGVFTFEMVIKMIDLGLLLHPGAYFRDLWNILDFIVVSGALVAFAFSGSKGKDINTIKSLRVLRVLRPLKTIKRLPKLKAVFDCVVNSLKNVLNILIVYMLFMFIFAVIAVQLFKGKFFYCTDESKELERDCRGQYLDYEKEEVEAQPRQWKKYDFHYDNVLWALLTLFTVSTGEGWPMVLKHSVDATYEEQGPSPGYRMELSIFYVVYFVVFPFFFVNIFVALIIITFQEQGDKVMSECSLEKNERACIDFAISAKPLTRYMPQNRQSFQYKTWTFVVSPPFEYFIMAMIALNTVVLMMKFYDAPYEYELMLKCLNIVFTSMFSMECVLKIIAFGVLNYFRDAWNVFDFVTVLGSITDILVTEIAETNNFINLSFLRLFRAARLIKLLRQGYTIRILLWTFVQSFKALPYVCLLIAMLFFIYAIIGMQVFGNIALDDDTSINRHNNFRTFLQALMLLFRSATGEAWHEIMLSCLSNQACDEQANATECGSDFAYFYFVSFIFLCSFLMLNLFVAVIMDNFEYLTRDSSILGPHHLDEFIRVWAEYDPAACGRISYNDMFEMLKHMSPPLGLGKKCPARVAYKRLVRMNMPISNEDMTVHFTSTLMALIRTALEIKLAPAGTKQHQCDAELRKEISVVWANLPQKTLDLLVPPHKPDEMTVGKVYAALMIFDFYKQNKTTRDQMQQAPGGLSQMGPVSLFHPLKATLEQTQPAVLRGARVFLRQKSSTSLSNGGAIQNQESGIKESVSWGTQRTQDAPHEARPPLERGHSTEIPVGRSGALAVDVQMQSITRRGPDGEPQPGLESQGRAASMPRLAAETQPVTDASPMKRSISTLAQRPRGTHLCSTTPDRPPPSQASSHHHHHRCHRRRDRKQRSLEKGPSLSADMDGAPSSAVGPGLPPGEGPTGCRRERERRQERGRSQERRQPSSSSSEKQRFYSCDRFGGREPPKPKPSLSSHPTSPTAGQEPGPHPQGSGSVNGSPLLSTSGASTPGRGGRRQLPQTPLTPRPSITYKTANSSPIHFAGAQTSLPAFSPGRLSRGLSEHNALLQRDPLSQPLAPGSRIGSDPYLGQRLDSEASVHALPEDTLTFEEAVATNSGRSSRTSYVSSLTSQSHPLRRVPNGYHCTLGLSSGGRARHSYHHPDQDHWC
Series [3] concerns the target T2, Voltage-dependent N-type calcium channel subunit alpha-1B. The series is described as follows: Inhibition of N-type calcium channel (VSCC) in IMR-32 at 10 uM.
Target sequence in this assay (Q00975 whole entry, looked up): as the sequence (Q00975 whole entry) above
Series [4] concerns the target T1, Voltage-gated L-type calcium channel. Nature of the series: Inhibition of L-type [Ca2+] channel (VSCC) in rat A7r5 vascular smooth muscle cells. This is another data set of the same source.

Regarding `CC(C)Oc1cc(OCCc2ccc(C(=N)N)cc2)cc(OCc2ccccc2CCc2cccc(O)c2)c1`, the results for the half-inhibitory concentration (IC50) in series [1] and in series [2] were 3 µM and 2.7 µM, respectively.
Regarding `CC(C)Oc1cc(OCCc2ccc(C(=N)N)cc2)cc(OCc2ccccc2CCc2ccc(O)cc2)c1`, the concentration for half-maximal inhibition (IC50) (commonly the point on the concentration scale where inhibition reaches its midpoint) turned out to be 4.2 µM in series [1] and 3.3 µM in series [2].
In the case of `CC(C)CCOc1cc(OCCCc2ccccc2OCCCc2ccc(O)cc2)cc(OCCc2ccc(C(=N)N)cc2)c1`, the inhibition – broadly, the change of the read-out against control, counted positive when it falls – in series [3] amounted to 19%. For the same molecule, in series [4], the Inhibition (in general, the share of the control response that was lost under treatment) is reported as 69%.

The values are drawn from ChEMBL document CHEMBL1133151 (2000).
